Values after ≈ are worked out from the molar mass of the structure shown. Read-outs that look alike come from different tables or passages of the source. Where no end group is shown, it is not given here.
How the values were obtained:
[1] = tested on: Escherichia coli ATCC 25922; assay: microbe, parasite or virus in culture; type: cell-based; details: for MIC: Escherichia coli, read-out: Minimal Inhibitory Concentration, E. coli
Procedure: It was determined using the broth microdilution assay in accordance with the procedures from the Clinical and Laboratory Standards Institute. For broth microdilution assays, pathogenic bacteria, such as Escherichia coli ATCC 25922, Staphylococcus aureus ATCC 25923, Pseudomonas aeruginosa ATCC 27853 and Klebsiella pneumoniae ST258, were cultured in Mueller-Hinton broth (MHB) at 37 °C until an end point between of 0.08 and 0.13 units of absorbance at 625 nm and diluted 1:100 in MHB (ca. […]). Fifty microliters of this bacterial suspension was dispensed into each well of a 96-well microtiter Costar® culture plates (Sigma Aldrich) having 50 µL of MHB containing a proper concentration of pure AMPs, antibiotics or the mixture of either of the AMPs with either of the antibiotics used. Dilutions of peptides and antibiotics were made manually with two-fold dilutions. […]

[2] = tested on: Klebsiella pneumoniae ST258; assay: microbe, parasite or virus in culture; type: cell-based; details: for MIC: Klebsiella pneumoniae, ST258, 18 h; for Minimal Inhibitory Concentration, K. pneumoniae: broth microdilution (CLSI), Mueller-Hinton broth, 18 h at 37 °C, A625nm, peptides n = 8
Procedure: (§1) It was determined using the broth microdilution assay in accordance with the procedures from the Clinical and Laboratory Standards Institute. For broth microdilution assays, pathogenic bacteria, such as Escherichia coli ATCC 25922, Staphylococcus aureus ATCC 25923, Pseudomonas aeruginosa ATCC 27853 and Klebsiella pneumoniae ST258, were cultured in Mueller-Hinton broth (MHB) at 37 °C until an end point between of 0.08 and 0.13 units of absorbance at 625 nm and diluted 1:100 in MHB (ca. […]). Fifty microliters of this bacterial suspension was dispensed into each well of a 96-well microtiter Costar® culture plates (Sigma Aldrich) having 50 µL of MHB containing a proper concentration of pure AMPs, antibiotics or the mixture of either of the AMPs with either of the antibiotics used. Dilutions of peptides and antibiotics were made manually with two-fold dilutions.
(§2) That is, the antimicrobial capacity of each AMP (50, 25, 12.5 and 6.2 µg/ mL) in combination with each antibiotic agent (50, 25, 12.5, 3.2, 1.6 and 0 µg/ mL) was measured as described above. For evaluation of the effect of the mixtures, the fractional inhibitory concentration (FIC) was calculated for each antibiotic in each combination. The following formulas were used to calculate the FIC index: FIC of AMP = MIC of AMP in combination with Antibiotic/MIC of AMP alone; FIC of Antibiotic = MIC of Antibiotic in combination with AMP/MIC of Antibiotic alone, and FIC index = FIC of AMP + FIC of Antibiotic. Synergy was defined as an FIC index of <0.5. Additive was defined as an FIC index of >0.5 but of <4, and finally antagonism was defined as an FIC index of >4.

[3] = tested on: Staphylococcus aureus ATCC 25923; assay: microbe, parasite or virus in culture; type: cell-based; details: for MIC: Staphylococcus aureus, read-out: Minimal Inhibitory Concentration, S. aureus
Procedure: as §1
as §2, with “E. coli, S. aureus, P. aeruginosa and K. pneumoniae were grown in the presence of each of the four AMPs, and in the presence of each of the eight commercial antibiotics, which were Levofloxacin, Trimethoprim, Sulfamethoxazole, Azithromycin, Amoxicillin, Ceftriaxone, Gentamicin and Vancomycin, and in combinations of AMPs and the antibiotics. That” for “That”

[4] = tested on: Pseudomonas aeruginosa ATCC 27853; assay: microbe, parasite or virus in culture; type: cell-based; details: for MIC: Pseudomonas aeruginosa, read-out: Minimal Inhibitory Concentration, P. aureginosa
Procedure: as §1
as §2, with “E. coli, S. aureus, P. aeruginosa and K. pneumoniae were grown in the presence of each of the four AMPs, and in the presence of each of the eight commercial antibiotics, which were Levofloxacin, Trimethoprim, Sulfamethoxazole, Azithromycin, Amoxicillin, Ceftriaxone, Gentamicin and Vancomycin, and in combinations of AMPs and the antibiotics. That” for “That”

[5] = Stability in human blood plasma; type: in vitro ADME; details: 50 μg/mL; for Peptide found after incubation in human blood plasma: 12 h at 37 °C, extraction, reverse phase HPLC at 230 nm, ESI-MS; for Recovery after interaction with human plasma, first few minutes of dilution: extracted after the first few minutes of dilution, reverse phase HPLC
Procedure: (§3) The four synthetic peptides were subjected to incubation in human blood plasma or in the supernatant of S. aureus and P. aeruginosa growth. The AMPs were diluted in human blood plasma or in the supernatant of bacterial growth (50 μg/mL) and incubated at 37 °C for 12 h. After peptide extraction, the AMPs were separated by reverse phase HPLC using a C18 column (Vydac 218 TP54, Grace Co.) and a linear gradient of acetonitrile in 0.1% aqueous TFA from 0 to 60% in 60 min at a flow rate of 1 mL/min. Effluent absorbance was monitored at 230 nm. Peptide fractions were dried under vacuum, resuspended and analyzed by ESI-MS to confirm their molecular masses.

[6] = Stability in supernatant of S. aureus growth; type: in vitro ADME, Staphylococcus aureus; details: 50 μg/mL, 12 h at 37 °C, extraction, reverse phase HPLC at 230 nm
Procedure: as §3

[7] = cited from earlier work
Excerpt: Concerning AMPs, several physicochemical characteristics have been associated with the biological activity of them. Those that are relevant include hydrophobicity, the helical hydrophobic moment, as well as the size and the net charge of the peptide. However, no particular value relating to any of these characteristics was solely sufficient to correlate with the antimicrobial activity of the AMPs tested. In this case, however, the larger peptides FA1 and Pin2[G] were the AMPs that manifested optimum biological performance. Nevertheless, a fine balance in terms of physicochemical pr ...

[8] = Stability in supernatant of P. aeruginosa growth; type: in vitro ADME, Pseudomonas aeruginosa; details: 50 μg/mL, 12 h at 37 °C, extraction, reverse phase HPLC at 230 nm
Procedure: as §3

[9] = read-out: Minimal Inhibitory Concentration, K. pneumoniae
[10] = ATCC25922, broth microdilution (CLSI), Mueller-Hinton broth, 18 h at 37 °C, A625nm, peptides n = 8
[11] = dose-response in Muller-Hinton broth, Figure 3D
[12] = ATCC25923, broth microdilution (CLSI), Mueller-Hinton broth, 18 h at 37 °C, A625nm, peptides n = 8
[13] = ATCC27853, broth microdilution (CLSI), Mueller-Hinton broth, 18 h at 37 °C, A625nm, peptides n = 8
[14] = broth microdilution (CLSI), Mueller-Hinton broth, 18 h at 37 °C, A625nm, peptides n = 8

Compound: Cc1cc(NS(=O)(=O)c2ccc(N)cc2)no1 [Sulfamethoxazole]
- Susceptibility of E. coli in words [1]: to some extent
- MIC ([1]; ATCC25922, 18 h): > 50 µg/mL
- MIC ([2]; read-out: Antibiotic (MIC)): > 50 µg/mL
- MIC [2, 9]: > 50 µg/mL
- Susceptibility of S. aureus in words [3]: resistance
- MIC ([3]; ATCC25923, 18 h): > 50 µg/mL
- Susceptibility of P. aeruginosa in words [4]: resistant
- MIC ([4]; ATCC27853, 18 h): > 50 µg/mL

Compound: CC[C@H]1OC(=O)[C@H](C)[C@@H](O[C@H]2C[C@@](C)(OC)[C@@H](O)[C@H](C)O2)[C@H](C)[C@@H](O[C@@H]2O[C@H](C)C[C@H](N(C)C)[C@H]2O)[C@](C)(O)C[C@@H](C)CN(C)[C@H](C)[C@@H](O)[C@]1(C)O [Azithromycin]
- MIC [1, 10]: 1.5 µg/mL (≈ 2 µM)
- MIC ([2]; read-out: Antibiotic (MIC)): > 50 µg/mL
- MIC [2, 9]: > 50 µg/mL
- Antibiotic concentration in whose presence K. pneumoniae could grow (up to) [2, 11]: up to 50 µg/mL
- MIC [3, 12]: 3.1 µg/mL
- MIC [4, 13]: 12.5 µg/mL

Compound: CO/N=C(\C(=O)N[C@@H]1C(=O)N2C(C(=O)O)=C(CSc3nc(=O)c(=O)[nH]n3C)CS[C@H]12)c1csc(N)n1 [Ceftriaxone]
- MIC [1, 10]: 1.5 µg/mL (≈ 2.7 µM)
- MIC ([2]; read-out: Antibiotic (MIC)): > 50 µg/mL
- MIC [2, 9]: > 50 µg/mL
- Antibiotic concentration in whose presence K. pneumoniae could grow (up to) [2, 11]: up to 50 µg/mL
- MIC [3, 12]: 1.5 µg/mL
- MIC [4, 13]: 12.5 µg/mL

Compound: GILKTIKSIASKLKRKAK [P18K]
- Minimal Inhibitory Concentration, E. coli [1, 14]: >50 µg/mL
- Peptide found after incubation in human blood plasma [5]: neither was P18K obtained
- Recovery after interaction with human plasma, first few minutes of dilution [5]: none
- Minimal Inhibitory Concentration, K. pneumoniae [2]: >50 µg/mL
- Stability in supernatants of S. aureus [6]: probably sequestered or cleaved
- hemolytic activity [7]: 923 µM
- Stability in supernatants of P. aeruginosa [8]: probably sequestered or cleaved
- Minimal Inhibitory Concentration, S. aureus [3, 14]: >50 µg/mL
- Minimal Inhibitory Concentration, P. aureginosa [4, 14]: >50 µg/mL

Compound: CC1(C)S[C@@H]2[C@H](NC(=O)[C@H](N)c3ccc(O)cc3)C(=O)N2[C@H]1C(=O)O [Amoxicillin]
- MIC ([1]; ATCC25922, 18 h): 12.5 µg/mL (≈ 34.2 µM)
- MIC ([2]; read-out: Antibiotic (MIC)): > 50 µg/mL
- MIC [2, 9]: > 50 µg/mL
- Antibiotic concentration in whose presence K. pneumoniae could grow (up to) [2, 11]: up to 50 µg/mL
- MIC ([3]; ATCC25923, 18 h): 1.5 µg/mL
- Susceptibility of P. aeruginosa in words [4]: resistant
- MIC ([4]; ATCC27853, 18 h): > 50 µg/mL

Compound: COc1cc(Cc2cnc(N)nc2N)cc(OC)c1OC [Trimethoprim]
- MIC ([1]; ATCC25922, 18 h): 1.5 µg/mL (≈ 5.17 µM)
- MIC ([2]; read-out: Antibiotic (MIC)): > 50 µg/mL
- MIC [2, 9]: > 50 µg/mL
- Antibiotic concentration in whose presence K. pneumoniae could grow (up to) [2, 11]: up to 50 µg/mL
- MIC ([3]; ATCC25923, 18 h): 1.5 µg/mL
- Susceptibility of P. aeruginosa in words [4]: resistant
- MIC ([4]; ATCC27853, 18 h): > 50 µg/mL

Compound: CN[C@H](CC(C)C)C(=O)N[C@H]1C(=O)N[C@@H](CC(N)=O)C(=O)N[C@H]2C(=O)N[C@H]3C(=O)N[C@H](C(=O)N[C@H](C(=O)O)c4cc(O)cc(O)c4-c4cc3ccc4O)[C@H](O)c3ccc(c(Cl)c3)Oc3cc2cc(c3O[C@@H]2O[C@H](CO)[C@@H](O)[C@H](O)[C@H]2O[C@H]2C[C@](C)(N)[C@H](O)[C@H](C)O2)Oc2ccc(cc2Cl)[C@H]1O [Vancomycin]
- MIC [1, 10]: > 50 µg/mL
- Susceptibility of E. coli in words ([1]; dose-response in Muller-Hinton broth, Figure 3C): resistance
- MIC ([2]; read-out: Antibiotic (MIC)): > 50 µg/mL
- MIC [2, 9]: > 50 µg/mL
- Antibiotic concentration in whose presence K. pneumoniae could grow (up to) [2, 11]: up to 50 µg/mL
- MIC [3, 12]: 1.5 µg/mL
- MIC [4, 13]: > 50 µg/mL
- Susceptibility of P. aeruginosa in words ([4]; dose-response in Muller-Hinton broth, Figure 3B): resistant

Compound: C[C@H]1COc2c(N3CCN(C)CC3)c(F)cc3c(=O)c(C(=O)O)cn1c23 [Levofloxacin]
- MIC [1, 10]: 1.5 µg/mL (≈ 4.15 µM)
- MIC ([2]; read-out: Antibiotic (MIC)): 50 µg/mL
- MIC [2, 9]: 50 µg/mL
- Antibiotic concentration in whose presence K. pneumoniae could grow (up to) [2, 11]: up to 25 µg/mL
- MIC [3, 12]: 1.5 µg/mL
- MIC [4, 13]: 1.5 µg/mL

Compound: FWGLKGLKKFSKKL [Pin2[14]]
- Minimal Inhibitory Concentration, E. coli [1, 14]: >50 µg/mL
- Peptide found after incubation in human blood plasma [5]: not found
- Recovery after interaction with human plasma, first few minutes of dilution [5]: none
- Minimal Inhibitory Concentration, K. pneumoniae [2]: >50 µg/mL
- Stability in supernatants of S. aureus [6]: not cleaved
- hemolytic activity [7]: 418 µM
- Minimal Inhibitory Concentration, S. aureus [3, 14]: >50 µg/mL
- Minimal Inhibitory Concentration, P. aureginosa [4, 14]: >50 µg/mL

Compound: CNC(C)C1CCC(N)C(OC2C(N)CC(N)C(OC3OCC(C)(O)C(NC)C3O)C2O)O1 (centres unmarked) [Gentamicin]
- MIC [1, 10]: 1.5 µg/mL (≈ 3.14 µM)
- MIC [2, 9]: 12.5 µg/mL
- MIC ([2]; antibiotic alone against K. pneumoniae, based on Figure 3, read-out: Antibiotic (MIC)): 12.5 µg/mL
- Susceptibility of K. pneumoniae in words [2, 11]: susceptible
- MIC [3, 12]: 1.5 µg/mL
- MIC [4, 13]: 1.5 µg/mL

Source: article PMC6273820, “Antimicrobial Activity and Stability of Short and Long Based Arachnid Synthetic Peptides in the Presence of Commercial Antibiotics” (Molecules, 2016)
